# Source: patent publication US9593305B2, “Differentiation of pluripotent stem cells” (Janssen Biotech, Inc., priority 2008, dated 2017)
# Test system: H1 human embryonic stem cells
# Experiment: Analog screening with GDF-8 and growth factor/agonist pool (Example 8, Tables 7 and 8)
# Type: cell-based
# Design: Cell Number, % of positive control / Sox17 Expression, % of positive control: tested at 2.5 µM
# Conditions: for outcome in analog screening of hits from primary screening: 2.5 μM with GDF-8 and growth factor/agonist pool
# Method in brief: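 H1 hESC clusters, washed free of growth factors, fed on alternate days over 4 days with DMEM:F12, 0.5% FCS, 2.5 μM compound, 25 ng/ml GDF-8 plus a 50 ng/ml growth-factor pool. Fixed cells immunostained for SOX17 and imaged; total SOX17 intensity normalised to positive control.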
# [1] = Plate 2, compound + EGF, FGF, PDGF-A, VEGF, PDGF-D, muscimol, GDF8
# [2] = Plate 2, compound + EGF, FGF, PDGF-A, VEGF, PDGF-D, muscimol, GDF8, positive control Activin A/Wnt3a
# [3] = Table 8: hits with greater than 25% activity of the positive control, with GDF-8 and growth factors/agonists
# [4] = EGF, FGF, PDGF-A, VEGF, PDGF-D, muscimol, GDF8
# [5] = Plate 1, compound + EGF, FGF, PDGF-A, VEGF, PDGF-D, muscimol, GDF8
# [6] = Plate 1, compound + EGF, FGF, PDGF-A, VEGF, PDGF-D, muscimol, GDF8, positive control Activin A/Wnt3a
Structure (SMILES),"Cell Number, Average Total Cell Number [1]","Sox17 Expression, Average Total Intensity [1]","Cell Number, % of positive control [2]","Sox17 Expression, % of positive control [2]","Cell Number, % of positive control [3]","Sox17 Expression, % of positive control [3]","Sox17 Expression, Average Total Intensity [3]",outcome in analog screening of hits from primary screening,"Cell Number, % of positive control [4] [%]","Cell Number, Average Total Cell Number [4]","Sox17 Expression, % of positive control [4] [%]","Sox17 Expression, Average Total Intensity [4]","Cell Number, Average Total Cell Number [5]","Sox17 Expression, Average Total Intensity [5]","Cell Number, % of positive control [6]","Sox17 Expression, % of positive control [6]"
"CCN1CC(=O)NCCCc2cc(ccc2F)-c2ncnc(n2)Nc2cc(Cl)cc(c2)C1 [Compound 25, 10-Chloro-14-ethyl-22-fluoro-3,5,7,14,17,27-hexaazatetracyclo[19.3.1.1˜2,6˜0.1˜8,12˜]heptacosa-1(25), 2(27), 3,5,8(26), 9,11,21,23-nonaen-16-one]",6571,7.60E+07,41.6 % of positive control,26.6 % of positive control,41.6 % of positive control,26.6 % of positive control,7.60E+07,–,–,–,–,–,–,–,–,–
"CCN1CC(=O)NCCCc2cncc(c2)-c2ncnc(n2)Nc2cc(Cl)cc(c2)C1 [Compound 35, 10-Chloro-14-ethyl-3,5,7,14,17,23,27-heptaazatetracyclo[19.3.1.1˜2,6˜0.1˜8,12]Theptacosa-1(25), 2(27), 3,5,8(26), 9,11,21,23-nonaen-16-one]",10461,1.59E+08,66.2 % of positive control,55.7 % of positive control,66.2 % of positive control,55.7 % of positive control,1.59E+08,repeated as hits,–,–,–,–,–,–,–,–
"C=CCN1CC(=O)NCCCc2cncc(c2)-c2ncnc(n2)Nc2cccc(c2)C1 [Compound 40, 14-Prop-2-en-1-yl-3,5,7,14,17,23,27-heptaazatetracyclo[19.3.1.1˜2.6˜0.1˜8,12˜]heptacosa-1(25), 2(27), 3,5,8(26), 9,11,21,23-nonaen-16-one]",4049,8.23E+07,25.6 % of positive control,28.8 % of positive control,25.6 % of positive control,28.8 % of positive control,8.23E+07,–,–,–,–,–,–,–,–,–
"O=C1NCCCc2cncc(c2)-c2ncnc(n2)Nc2cccc(c2)CN2CCC[C@@H]12 [Compound 18, (18S)-3,5,7,14,20,26,30-Heptaazapentacyclo[22.3.1.1˜2,6˜1˜8,12˜0.0˜14,18˜]triaconta-1(28), 2(30), 3,5,8(29), 9,11,24,26-nonaen-19-one]",–,–,–,–,–,–,–,–,55.3,8742,35.4,1.01E+08,13037,1.63E+08,97.3 % of positive control,65.2 % of positive control
"O=C1CCN2CCN(CC2)Cc2cccc(c2)Nc2ncnc(n2)-c2ccnc(c2)NCCCN1 [Compound 13, 1,8,10,12,17,19,23,27,33-Nonaazapentacyclo[25.2.2.1˜3,7˜0.1˜9.13˜1˜14.18˜]tetratriaconta-3(34), 4,6,9(33), 10,12,14(32), 15,17-nonaen-24-one]",9123,1.13E+08,57.7 % of positive control,39.7 % of positive control,–,–,–,–,52.6,7045,28.8,7.22E+07,–,–,–,–
"CN1CCC(=O)NCCCNc2cccc(c2)-c2ncnc(n2)Nc2cccc(c2)C1 [Compound 21, 14-Methyl-3,5,7,14,18,22,29-heptaazatetracyclo[21.3.1.1˜2,6˜0.1˜8,12˜]nonacosa-1(27), 2(29), 3,5,8(28), 9,11,23,25-nonaen-17-one]",–,–,–,–,94.4 % of positive control,65.9 % of positive control,1.65E+08,–,–,–,–,–,12640,1.65E+08,94.4 % of positive control,65.9 % of positive control
"O=C1CCN2CCN(CC2)Cc2cc(Cl)cc(c2)Nc2ncnc(n2)-c2cncc(c2)CCCN1 [Compound 34, 5-Chloro-1,8,10,12,16,22,26,32-octaazapentacyclo[24.2.2.1˜3.7˜0.1˜9,13˜0.1˜14.18˜]tritriaconta-3(33), 4,6,9(32), 10,12,14(31), 15,17-nonaen-23-one]",8907,9.99E+07,56.3 % of positive control,35.0 % of positive control,56.3 % of positive control,35.0 % of positive control,9.99E+07,repeated as hits,–,–,–,–,–,–,–,–
"CCN1CC(=O)NCCCc2cccc(c2)-c2ncnc(n2)Nc2cccc(c2)C1 [Compound 15, 14-Ethyl-3,5,7,14,17,27-hexaazatetracyclo[19.3.1.1˜2,6˜1-8.12˜]heptacosa-1(25), 2(27), 3,5,8(26), 9,11,21,23-nonaen-16-one]",–,–,–,–,–,–,–,–,45.8,7234,27.8,7.95E+07,8448,8.64E+07,63.1 % of positive control,34.5 % of positive control
"O=C1CCN2CCN(CC2)Cc2cccc(c2)Nc2ncnc(n2)-c2cncc(c2)CCCN1 [Compound 23, 1,8,10,12,16,22,26,32-Octaazapentacyclo[24.2.2.1-3,7˜0.1˜9,13˜0.1˜14,18˜]tritriaconta-3(33), 4,6,9(32), 10,12,14(31), 15,17-nonaen-23-one]",–,–,–,–,90.8 % of positive control,86.0 % of positive control,2.15E+08,–,–,–,–,–,12165,2.15E+08,90.8 % of positive control,86.0 % of positive control
"O=C1NCCCc2cncc(c2)-c2ncnc(n2)Nc2cccc(c2)CN2CCCC1C2 (stereo not shown) [Compound 17, 3,5,7,14,20,26,31-Heptaazapentacyclo[22.3.1.1-2,6˜1˜8,12˜1˜14,18˜]hentriaconta-1(28), 2(31), 3,5,8(30), 9,11,24,26-nonaen-19-one]",–,–,–,–,–,–,–,–,59.6,7988,45.0,1.13E+08,–,–,–,–
"CN1CCC(=O)NCCCc2cncc(c2)-c2ncnc(n2)Nc2cccc(c2)C1 [Compound 19, 14-Methyl-3,5,7,14,18,24,28-heptaazatetracyclo[20.3.1.1˜2,6˜0.1˜8,12˜]octacosa-1(26), 2(28), 3,5,8(27), 9,11,22,24-nonaen-17-one]",8425,1.19E+08,53.3 % of positive control,41.6 % of positive control,–,–,–,–,58.2,7799,27.2,6.82E+07,–,–,–,–
"CCN1CC(=O)NCCCc2cc(ccn2)-c2ncnc(n2)Nc2cc(Cl)cc(c2)C1 [Compound 14, 10-Chloro-14-ethyl-3,5,7,14,17,22,27-heptaazatetracyclo[19.3.1.1˜2,6˜1˜8,12˜]heptacosa-1(25), 2(27), 3,5,8(26), 9,11,21,23-nonaen-16-one]",–,–,–,–,–,–,–,–,53.5,8464,29.1,8.33E+07,9344,1.23E+08,69.8 % of positive control,49.0 % of positive control
"CN1CCCC(=O)NCCCc2cncc(c2)-c2ncnc(n2)Nc2cccc(c2)C1 [Compound 20, 14-Methyl-3,5,7,14,19,25,29-heptaazatetracyclo[21.3.1.1˜2,6˜0.1˜8,12˜]nonacosa-1(27), 2(29), 3,5,8(28), 9,11,23,25-nonaen-18-one]",7346,8.90E+07,46.5 % of positive control,31.2 % of positive control,–,–,–,–,70.4,9434,59.1,1.48E+08,9434,1.48E+08,70.4 % of positive control,59.1 % of positive control
